Values joined by “and” are separate entries in the source; they are usually repeats but may differ in a detail not shown here. Equal entries are not always repeated.
Key:
Assay in all cases: Pre-emergence action against weeds (greenhouse)
Format in all cases: in vivo
[1] = system: ALOMY—sensitive (Alopecurus myosuroides)
From the text: (§1) Depending on the trial conditions, the soil of the standard field soil is sterile or not sterile.
(§2) The amount of water used for spray application was 300l/ha.
ALOMY—sensitive (Alopecurus myosuroides) sensitive to customary herbicidally active compounds.
(§3) Insofar as herbicidal effects of the compositions according to the invention compared to mixtures of the prior art or compared to components applied individually against economically important mono- and dicotyledonous harmful plants were the centre of attention, the synergistic herbicidal activities were calculated using Colby's formula (cf. S. R. Colby; Weeds 15 (1967), 20-22): […]

[2] = system: ALOMY—resistant (Alopecurus myosuroides)
From the text: as §1, §2
ALOMY—resistant (Alopecurus myosuroides) resistant to herbicidally active compounds of the HRAC groups A and B; population mixture of field origin having increased metabolic resistance (IMR) and some target site resistance (TSR).
as §3

[3] = system: LOLRI—sensitive (Lolium rigidum)
From the text: as §1, §2
LOLRI—sensitive (Lolium rigidum) sensitive to customary herbicidally active compounds.
as §3

[4] = system: LOLRI—resistant (Lolium rigidum)
From the text: as §1, §2
LOLRI—resistant (Lolium rigidum) resistant to herbicidally active compounds of the HRAC groups A and B; population mixture of field origin having increased metabolic resistance (IMR) and some target site resistance (TSR).
as §3

AVEFA (Avenafatua) = system: AVEFA (Avenafatua)
From the text: as §1, §2
AVEFA (Avenafatua)—Wild oat
as §3

BROST (Bromus sterilis) = system: BROST (Bromus sterilis)
From the text: as §1, §2
BROST (Bromus sterilis)—Bromegrass, barren
as §3

PAPRH (Papaver rhoeas) = system: PAPRH (Papaver rhoeas)
From the text: as §1, §2
PAPRH (Papaver rhoeas)—Poppy, common
as §3

[5] = system: SORHA (Sorghum halepense)
From the text: as §1, §2
SORHA (Sorghum halepense)—Johnsongrass
as §3

CENCY (Centaurea cyanus) = system: CENCY (Centaurea cyanus)
From the text: as §1, §2
CENCY (Centaurea cyanus)—Cornflower
as §3

[6] = system: VERHE (Veronica hederaefolia)
From the text: as §1, §2
VERHE (Veronica hederaefolia)—Speedwell, iveleaf
as §3

EMEAU (Emex australis) = system: EMEAU (Emex australis)
From the text: as §1, §2
EMEAU (Emex australis)—Cathead
as §3

[7] = system: RAPRA (Raphanus raphanistrum)
From the text: as §1, §2
RAPRA (Raphanus raphanistrum)—Charlock, jointed
as §3

BRSNW (Brassica napus) = system: BRSNW (Brassica napus)
From the text: as §1, §2
BRSNW (Brassica napus)—Rape, winter
as §3

[8] = system: TRZAS (Triticum aestivum)
From the text: as §1, §2
TRZAS (Triticum aestivum)—Wheat, spring
as §3

HORVS (Hordeum vulgare) = system: HORVS (Hordeum vulgare)
From the text: as §1, §2
HORVS (Hordeum vulgare)—Barley, spring
as §3

[9] = pre-emergence, dose 100 g AS/ha

SMILES: CC1(C)CON(Cc2ccc(Cl)cc2Cl)C1=O [2-[(2,4-dichlorophenyl)methyl]-4,4-dimethyl-3-isoxazolidinone]
- herbicidal action ([1]; 10 g AS/ha): 0%
- herbicidal action ([1]; 25 g AS/ha): 0%
- herbicidal action ([1]; 50 g AS/ha): 20%
- herbicidal action ([1]; 100 g AS/ha): 60%
- herbicidal action ([1]; 200 g AS/ha): 95%
- herbicidal action ([1]; 250 g AS/ha): 93%
- herbicidal action ([1]; 400 g AS/ha): 95%
- herbicidal action ([1]; 500 g AS/ha): 95%
- Herbicidal action ALOMY sensitive [1, 9]: 60
- herbicidal action ([2]; 10 g AS/ha): 0%
- herbicidal action ([2]; 25 g AS/ha): 0%
- herbicidal action ([2]; 50 g AS/ha): 10% and 20%
- herbicidal action ([2]; 100 g AS/ha): 60%
- herbicidal action ([2]; 200 g AS/ha): 80%
- herbicidal action ([2]; 250 g AS/ha): 93%
- herbicidal action ([2]; 400 g AS/ha): 95%
- herbicidal action ([2]; 500 g AS/ha): 95%
- Herbicidal action ALOMY resistant [2, 9]: 60
- herbicidal action ([3]; 10 g AS/ha): 0%
- herbicidal action ([3]; 25 g AS/ha): 30%
- herbicidal action ([3]; 50 g AS/ha): 70%
- herbicidal action ([3]; 100 g AS/ha): 70%
- herbicidal action ([3]; 200 g AS/ha): 90%
- herbicidal action ([3]; 250 g AS/ha): 95%
- herbicidal action ([3]; 400 g AS/ha): 95%
- herbicidal action ([3]; 500 g AS/ha): 95%
- Herbicidal action LOLRI sensitive [3, 9]: 70
- herbicidal action ([4]; 10 g AS/ha): 0%
- herbicidal action ([4]; 25 g AS/ha): 5%
- herbicidal action ([4]; 50 g AS/ha): 60% and 30%
- herbicidal action ([4]; 100 g AS/ha): 70% and 75%
- herbicidal action ([4]; 200 g AS/ha): 80%
- herbicidal action ([4]; 250 g AS/ha): 80%
- herbicidal action ([4]; 400 g AS/ha): 94%
- herbicidal action ([4]; 500 g AS/ha): 94%
- Herbicidal action LOLRI resistant [4, 9]: 75
- herbicidal action (AVEFA (Avenafatua); 10 g AS/ha): 0%
- herbicidal action (AVEFA (Avenafatua); 25 g AS/ha): 5%
- herbicidal action (AVEFA (Avenafatua); 50 g AS/ha): 15%
- herbicidal action (AVEFA (Avenafatua); 100 g AS/ha): 50%
- herbicidal action (AVEFA (Avenafatua); 200 g AS/ha): 70%
- herbicidal action (AVEFA (Avenafatua); 250 g AS/ha): 75%
- herbicidal action (AVEFA (Avenafatua); 400 g AS/ha): 75%
- herbicidal action (AVEFA (Avenafatua); 500 g AS/ha): 80%
- Herbicidal action AVEFA (AVEFA (Avenafatua); [9]): 50
- herbicidal action (BROST (Bromus sterilis); 10 g AS/ha): 0%
- herbicidal action (BROST (Bromus sterilis); 25 g AS/ha): 0%
- herbicidal action (BROST (Bromus sterilis); 50 g AS/ha): 0%
- herbicidal action (BROST (Bromus sterilis); 100 g AS/ha): 20%
- herbicidal action (BROST (Bromus sterilis); 200 g AS/ha): 30%
- herbicidal action (BROST (Bromus sterilis); 250 g AS/ha): 65%
- herbicidal action (BROST (Bromus sterilis); 400 g AS/ha): 70%
- herbicidal action (BROST (Bromus sterilis); 500 g AS/ha): 75%
- Herbicidal action BROST (BROST (Bromus sterilis); [9]): 20
- herbicidal action (PAPRH (Papaver rhoeas); 250 g AS/ha): 95%
- herbicidal action (PAPRH (Papaver rhoeas); 400 g AS/ha): 95%
- herbicidal action (PAPRH (Papaver rhoeas); 500 g AS/ha): 95%
- herbicidal action ([5]; 10 g AS/ha): 0%
- herbicidal action ([5]; 25 g AS/ha): 0%
- herbicidal action ([5]; 50 g AS/ha): 30%
- herbicidal action ([5]; 100 g AS/ha): 40%
- herbicidal action ([5]; 200 g AS/ha): 60%
- Herbicidal action SORHA [5, 9]: 40
- herbicidal action (CENCY (Centaurea cyanus); 10 g AS/ha): 0%
- herbicidal action (CENCY (Centaurea cyanus); 25 g AS/ha): 0%
- herbicidal action (CENCY (Centaurea cyanus); 50 g AS/ha): 10%
- herbicidal action (CENCY (Centaurea cyanus); 100 g AS/ha): 70%
- herbicidal action (CENCY (Centaurea cyanus); 200 g AS/ha): 88%
- Herbicidal action CENCY (CENCY (Centaurea cyanus); [9]): 70
- herbicidal action ([6]; 10 g AS/ha): 15%
- herbicidal action ([6]; 25 g AS/ha): 40%
- herbicidal action ([6]; 50 g AS/ha): 70%
- herbicidal action ([6]; 100 g AS/ha): 80%
- herbicidal action ([6]; 200 g AS/ha): 90%
- herbicidal action ([6]; 250 g AS/ha): 95%
- herbicidal action ([6]; 400 g AS/ha): 95%
- herbicidal action ([6]; 500 g AS/ha): 95%
- Herbicidal action VERHE [6, 9]: 80
- herbicidal action (EMEAU (Emex australis); 10 g AS/ha): 0%
- herbicidal action (EMEAU (Emex australis); 25 g AS/ha): 0%
- herbicidal action (EMEAU (Emex australis); 50 g AS/ha): 10%
- herbicidal action (EMEAU (Emex australis); 200 g AS/ha): 40%
- herbicidal action (EMEAU (Emex australis); 250 g AS/ha): 60%
- herbicidal action (EMEAU (Emex australis); 400 g AS/ha): 70%
- herbicidal action (EMEAU (Emex australis); 500 g AS/ha): 70%
- Herbicidal action EMEAU (EMEAU (Emex australis); [9]): 20
- herbicidal action ([7]; 10 g AS/ha): 0%
- herbicidal action ([7]; 25 g AS/ha): 5%
- herbicidal action ([7]; 50 g AS/ha): 20%
- herbicidal action ([7]; 100 g AS/ha): 40%
- herbicidal action ([7]; 200 g AS/ha): 50%
- herbicidal action ([7]; 250 g AS/ha): 60%
- herbicidal action ([7]; 400 g AS/ha): 80%
- herbicidal action ([7]; 500 g AS/ha): 90%
- Herbicidal action RAPRA [7, 9]: 40
- herbicidal action (BRSNW (Brassica napus); 10 g AS/ha): 0%
- herbicidal action (BRSNW (Brassica napus); 25 g AS/ha): 0%
- herbicidal action (BRSNW (Brassica napus); 50 g AS/ha): 0%
- herbicidal action (BRSNW (Brassica napus); 100 g AS/ha): 0%
- herbicidal action (BRSNW (Brassica napus); 200 g AS/ha): 5%
- herbicidal action (BRSNW (Brassica napus); 250 g AS/ha): 20%
- herbicidal action (BRSNW (Brassica napus); 400 g AS/ha): 20%
- herbicidal action (BRSNW (Brassica napus); 500 g AS/ha): 20%
- Herbicidal action BRSNW (BRSNW (Brassica napus); [9]): 0
- herbicidal action ([8]; 10 g AS/ha): 0%
- herbicidal action ([8]; 25 g AS/ha): 0%
- herbicidal action ([8]; 50 g AS/ha): 0%
- herbicidal action ([8]; 100 g AS/ha): 5%
- herbicidal action ([8]; 200 g AS/ha): 40%
- herbicidal action ([8]; 250 g AS/ha): 50%
- herbicidal action ([8]; 400 g AS/ha): 60%
- herbicidal action ([8]; 500 g AS/ha): 70%
- Herbicidal action (crop damage) TRZAS [8, 9]: 5
- herbicidal action (HORVS (Hordeum vulgare); 10 g AS/ha): 0%
- herbicidal action (HORVS (Hordeum vulgare); 25 g AS/ha): 2%
- herbicidal action (HORVS (Hordeum vulgare); 50 g AS/ha): 5%
- herbicidal action (HORVS (Hordeum vulgare); 100 g AS/ha): 15%
- herbicidal action (HORVS (Hordeum vulgare); 200 g AS/ha): 40%
- herbicidal action (HORVS (Hordeum vulgare); 250 g AS/ha): 50%
- herbicidal action (HORVS (Hordeum vulgare); 400 g AS/ha): 60%
- herbicidal action (HORVS (Hordeum vulgare); 500 g AS/ha): 60%
- Herbicidal action (crop damage) HORVS (HORVS (Hordeum vulgare); [9]): 15
